Columns and labels:
α3β3γ2 GABAAR = target: T1, α3β3γ2 GABAAR (Rattus norvegicus, UniProt P18508+P20236); test: Whole-cell patch-clamp, potentiation of GABA-evoked currents in transfected HEK293 cells; assay type: cell-based; conditions: α3GABAARs; GABA at EC10
T1 construct: expressed in transfected cells; host or cells: HEK293 cells (ATCC)
Excerpt: (§1) To ensure expression of the γ2 subunit (required for modulation of GABAAR currents by BDZs) in all recorded cells, cells were transfected with a plasmid expressing the γ2 subunit plus eGFP from an IRES (internal ribosome entry site) and only eGFP-positive cells were selected for recordings. The transfection mixture contained (in μg): […], 3 γ2/eGFP (used as a marker of successful transfection). Whole-cell patch-clamp recordings were made 18-36 hrs after transfection at room temperature (20-24° C.) and at a holding membrane potential of −60 mV. Recording electrodes were filled with solution containing (in mM): 120 CsCl, 10 EGTA (aminopolycarboxylic acid), 10 HEPES (4-(2-hydroxyethyl)-1-piperazineethanesulfonic acid, pH 7.40), 4 MgCl2, 0.5 GTP (guanosine-5′-triphosphate) and 2 ATP (adenosine triphosphate). The external solution contained (in mM): 150 NaCl, 10 KCl, 2.0 CaCl2, 1.0 MgCl2, 10 HEPES (pH 7.40), and 10 glucose. GABA was applied to the recorded cell using a manually controlled pulse (6-10 s) of a low sub-saturating GABA concentration (EC10). […] EC50 values and Hill coefficients (nH) were obtained from fits of normalized concentration-response curves to the equation: IGABA=Imax[GABA]nH/([GABA]nH+[EC50]nH). Imax was determined as the average maximal current elicited by saturating concentration of GABA (30 μM−3 mM, depending on the subunit composition).

[1] = test system: T2, α1β2γ2, α2β3γ2, α3β3γ2 and α5β2γ2 GABAARs; test: Whole-cell patch-clamp, results stated across several recombinant GABAAR subtypes; assay type: cell-based, rat; conditions: up to 3 μM for DZP, up to 20 μM for CBZ and NDMC
T2 construct: EC50 of potentiation of GABAAR currents; other: range over all four receptor subtypes; GABA at EC10; fused on or other part: eGFP co-expressed from an IRES on the γ2 plasmid (not fused)
Excerpt: as §1

[2] = test system: α1β2γ2, α2β3γ2, α3β3γ2 and α5β2γ2 GABAARs; test: as above; assay type: cell-based, rat; conditions: for Preference α2- versus α1GABAARs at low concentrations: low concentrations (<EC50); for Efficacy of potentiation of α2- versus α1GABAARs at saturating concentrations: saturating concentrations: 1 μM DZP, 20 μM CBZ, 20 μM NDMC; for Relative potentiation of subtypes at sub-saturating concentrations: sub-saturating concentrations (<EC50)
Excerpt: as §1

[3] = test system: T3, α1β2γ2, α2β3γ2, α3β3γ2 and α5β2γ2 GABAARs; test: as above; assay type: cell-based, rat; conditions: α1-, α2- and α5-GABAARs together; GABA at EC10
T3 construct: rows headed: Potentiation of the other three α1-, α2-, and α5-GABAARs subtypes; other: α1-, α2- and α5-GABAARs together; GABA at EC1; fused on or other part: eGFP co-expressed from an IRES on the γ2 plasmid (not fused)
Excerpt: as §1

[4] = test system: α2 versus α1 receptor complexes; conditions: cited from earlier work
[5] = after a single oral dose of 20 or 30 mg of CBZ; cited from earlier work
healthy volunteers = conditions: standard therapeutic doses; cited from earlier work
[6] = test system: α2GABAAR-mediated antihyperalgesia; conditions: GABAAR α1 (H→R) point-mutated mice
Protocol: To avoid confounding effects of anxiolysis in sedation experiments, and of sedation on antihyperalgesia experiments triple point-mutated mice were used. Sedation was assessed in triple (H→R) point-mutated mice, in which all GABAARs except α1 had been rendered BDZ-insensitive. Conversely, antihyperalgesia was studied in GABAAR α1 (H→R) point-mutated mice to rule out confounding sedation.

[7] = test system: α1GABAAR-mediated sedation; test: Dose dependence of sedation in triple (H→R) point-mutated mice; conditions: all GABAARs except α1 BDZ-insensitive
Protocol: Mice (C57BL/6J or 129X1/SvJ) were tested during the light phase of the day-night cycle. […] Motor activity expressed as the total number of photocell interruptions was recorded for 6 h.

α2GABAAR = α2GABAAR (Mus musculus, UniProt P22723+P26048); conditions: full agonist; cited from earlier work
[8] = NDMC pharmacokinetics after oral administration, dried blood spot sampling, LCMS-MS; assay type: in vivo, C57BL/6 mice
Protocol: Pharmacokinetic parameters of NDMC following oral administration in C57BL/6 mice were determined and allowed to test whether antihyperalgesia after NDMC administration was mediated by NDMC itself and not by a down-stream metabolite.
Pharmacokinetic properties of NDMC were evaluated using the dried blood spot sampling method. This technique allows collecting multiple bleeds from the same animal over a large time window (Deglon et al., 2011, Pharm. Biomed. Analysis, 54(2): 359-367). Four μl of whole blood were collected and spotted onto a filter paper card from Whatman (Dassel, Germany) at different time points between 0 and 48 h after NDMC administration. NDMC concentration measurements were performed using a fully validated LCMS-MS (liquid chromatography—mass spectrometry or HPLC) method. Pharmacokinetic parameters were estimated by a noncompartmental method using WinNonlin® version 5.2 (Pharsight, Mountainview, Calif., USA).
Blood NDMC concentrations were measured with HPLC following single oral doses of 3, 10 and 30 mg kg^−1 in three mice per group (FIG. 5). Maximal blood levels of NDMC were reached within 2-3 hrs.

mice, motor activity = test: Motor activity (photocell interruptions); assay type: in vivo
α1β2γ2 GABAAR = target: T4, α1β2γ2 GABAAR (Rattus norvegicus, UniProt P18508+P62813); test: Whole-cell patch-clamp, potentiation of GABA-evoked currents in transfected HEK293 cells; assay type: cell-based; conditions: α1GABAARs; GABA at EC10
T4 construct: expressed in transfected cells; host or cells: HEK293 cells (ATCC)
Excerpt: as §1

α2β3γ2 GABAAR = target: T5, α2β3γ2 GABAAR (Rattus norvegicus, UniProt P18508+P23576); test: as above; assay type: cell-based
T5 construct: expressed in transfected cells; host or cells: HEK293 cells (ATCC)
Excerpt: as §1

α5β2γ2 GABAAR = target: T6, α5β2γ2 GABAAR (Rattus norvegicus, UniProt P18508+P19969); test: as above; assay type: cell-based; conditions: α5GABAARs; GABA at EC10
T6 construct: expressed in transfected cells; host or cells: HEK293 cells (ATCC)
Excerpt: as §1

[9] = test system: CCI mice, paw withdrawal threshold; test: Mechanical hyperalgesia (dynamic von Frey filaments) in CCI neuropathic pain model; assay type: in vivo
Protocol: (§2) Experiments were performed in wild-type mice (genetic background C57BL/6J or 129X1/SvJ), and in homozygous triple and quadruple (H→R) GABAAR point-mutated mice of the 129X1/SvJ background (Ralvenius et al., 2015, supra). Quadruple point-mutated mice were generated by cross breeding of single point-mutated mice (Crestani et al., 2002, PNAS, 99(13): 8980-8985; Low et al., 2000, Science 290(5489): 131-134; Rudolph et al., 1999, Nature, 401(6755): 796-800). Quadruple point mutated mice carry the H→R mutation in the α1, α2, α3, and α5 subunits that is in all α subunits that can form a high affinity BDZ binding site.
(§3) A chronic constriction injury (CCI) model was used. Unilateral constriction injury of the left sciatic nerve just proximal to the trifurcation was performed. Anesthesia was induced and maintained by 2% isoflurane, combined with oxygen (30%). The sciatic nerve was exposed at the mid-thigh level proximal to the sciatic trifurcation by blunt dissection through the biceps femoris muscle. 5±7 mm of nerve were freed of adhering tissue and three chromic gut ligatures (4/0) (Ethicon) were loosely put around the nerve with about 1 mm spacing. […] Heat hyperalgesia and mechanical sensitization were assessed 7 days after surgery.
Mechanical sensitivity was assessed with dynamic von Frey filaments (IITC, Woodland Hills, Calif.). […]

[10] = test system: CCI mice, paw withdrawal latency; test: Heat hyperalgesia (Plantar Test) in chronic constriction injury (CCI) neuropathic pain model; assay type: in vivo
Protocol: as §2
as §3, with “muscle.” for “muscle. 5±7 mm of nerve were freed of adhering tissue and three chromic gut ligatures (4/0) (Ethicon) were loosely put around the nerve with about 1 mm spacing.”
Paw withdrawal latencies upon exposure to a defined radiant heat stimulus were measured using a commercially available apparatus (Plantar Test, Ugo Basile, Comerio, Italy). […]

[11] = single oral doses of 3, 10 and 30 mg kg^−1
[12] = quadruple point-mutated mice, 30 mg kg^−1

T1 sequence (P20236 29-493): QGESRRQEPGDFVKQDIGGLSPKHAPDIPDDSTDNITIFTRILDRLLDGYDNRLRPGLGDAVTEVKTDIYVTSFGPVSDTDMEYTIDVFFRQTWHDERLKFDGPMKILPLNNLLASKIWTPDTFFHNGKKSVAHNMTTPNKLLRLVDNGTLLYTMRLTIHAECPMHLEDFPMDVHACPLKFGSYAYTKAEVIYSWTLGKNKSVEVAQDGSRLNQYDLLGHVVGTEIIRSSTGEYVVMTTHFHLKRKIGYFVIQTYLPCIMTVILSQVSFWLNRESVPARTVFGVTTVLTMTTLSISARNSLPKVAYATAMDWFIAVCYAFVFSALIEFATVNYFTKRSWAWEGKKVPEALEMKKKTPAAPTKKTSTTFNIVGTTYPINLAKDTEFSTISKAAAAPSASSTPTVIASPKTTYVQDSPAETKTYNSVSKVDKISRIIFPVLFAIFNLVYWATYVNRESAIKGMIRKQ
T1 sequence (P63079 26-473 partner): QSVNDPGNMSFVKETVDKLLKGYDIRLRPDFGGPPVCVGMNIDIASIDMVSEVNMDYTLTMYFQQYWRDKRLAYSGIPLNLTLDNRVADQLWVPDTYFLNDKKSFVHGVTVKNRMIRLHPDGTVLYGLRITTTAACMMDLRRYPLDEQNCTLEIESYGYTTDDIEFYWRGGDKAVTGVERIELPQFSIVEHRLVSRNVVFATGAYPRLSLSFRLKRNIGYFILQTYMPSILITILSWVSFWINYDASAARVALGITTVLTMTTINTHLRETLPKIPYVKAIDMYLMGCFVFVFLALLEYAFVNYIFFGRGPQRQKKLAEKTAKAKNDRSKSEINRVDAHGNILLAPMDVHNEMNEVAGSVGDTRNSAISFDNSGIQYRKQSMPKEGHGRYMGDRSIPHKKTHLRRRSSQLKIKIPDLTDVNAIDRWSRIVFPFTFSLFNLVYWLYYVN
T1 sequence (P18508 39-466): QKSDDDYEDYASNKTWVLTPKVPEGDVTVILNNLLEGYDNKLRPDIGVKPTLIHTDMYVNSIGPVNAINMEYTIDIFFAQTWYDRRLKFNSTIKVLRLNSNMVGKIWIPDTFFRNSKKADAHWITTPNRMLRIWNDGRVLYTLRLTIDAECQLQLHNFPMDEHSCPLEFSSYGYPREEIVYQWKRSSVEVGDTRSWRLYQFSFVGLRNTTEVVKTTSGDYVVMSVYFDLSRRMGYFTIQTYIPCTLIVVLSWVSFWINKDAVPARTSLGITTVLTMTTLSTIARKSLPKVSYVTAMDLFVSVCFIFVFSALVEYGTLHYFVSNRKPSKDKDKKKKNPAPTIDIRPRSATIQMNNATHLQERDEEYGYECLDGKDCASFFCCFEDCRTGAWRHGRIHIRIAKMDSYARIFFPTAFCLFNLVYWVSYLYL
T5 sequence (P23576 29-451): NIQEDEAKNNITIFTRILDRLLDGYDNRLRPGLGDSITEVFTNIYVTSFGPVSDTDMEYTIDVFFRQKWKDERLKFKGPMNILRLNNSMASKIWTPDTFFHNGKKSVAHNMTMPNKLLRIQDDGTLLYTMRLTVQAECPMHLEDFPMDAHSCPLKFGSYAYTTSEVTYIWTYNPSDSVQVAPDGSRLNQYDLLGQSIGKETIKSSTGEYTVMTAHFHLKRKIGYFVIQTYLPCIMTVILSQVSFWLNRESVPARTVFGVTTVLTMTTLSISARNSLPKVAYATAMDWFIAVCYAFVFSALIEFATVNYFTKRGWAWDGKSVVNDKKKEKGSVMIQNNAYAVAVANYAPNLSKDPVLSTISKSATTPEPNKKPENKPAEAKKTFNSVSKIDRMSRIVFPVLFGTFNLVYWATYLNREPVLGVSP
T5 sequence (P63079 26-473 partner): as the sequence (P63079 26-473 partner) above
T5 sequence (P18508 39-466): as the sequence (P18508 39-466) above
T6 sequence (P19969 32-464 limits assumed): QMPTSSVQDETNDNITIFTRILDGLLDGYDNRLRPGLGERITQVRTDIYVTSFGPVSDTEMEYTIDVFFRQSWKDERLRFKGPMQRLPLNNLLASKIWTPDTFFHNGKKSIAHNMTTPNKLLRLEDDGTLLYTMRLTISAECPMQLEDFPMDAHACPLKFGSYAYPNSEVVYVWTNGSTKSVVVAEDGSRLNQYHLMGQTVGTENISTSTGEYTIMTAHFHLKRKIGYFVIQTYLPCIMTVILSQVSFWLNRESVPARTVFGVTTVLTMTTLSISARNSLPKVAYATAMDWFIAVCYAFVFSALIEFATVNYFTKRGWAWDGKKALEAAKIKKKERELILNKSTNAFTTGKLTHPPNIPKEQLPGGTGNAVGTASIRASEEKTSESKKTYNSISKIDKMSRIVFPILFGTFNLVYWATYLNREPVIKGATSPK
T6 sequence (P63138 25-474 partner limits assumed): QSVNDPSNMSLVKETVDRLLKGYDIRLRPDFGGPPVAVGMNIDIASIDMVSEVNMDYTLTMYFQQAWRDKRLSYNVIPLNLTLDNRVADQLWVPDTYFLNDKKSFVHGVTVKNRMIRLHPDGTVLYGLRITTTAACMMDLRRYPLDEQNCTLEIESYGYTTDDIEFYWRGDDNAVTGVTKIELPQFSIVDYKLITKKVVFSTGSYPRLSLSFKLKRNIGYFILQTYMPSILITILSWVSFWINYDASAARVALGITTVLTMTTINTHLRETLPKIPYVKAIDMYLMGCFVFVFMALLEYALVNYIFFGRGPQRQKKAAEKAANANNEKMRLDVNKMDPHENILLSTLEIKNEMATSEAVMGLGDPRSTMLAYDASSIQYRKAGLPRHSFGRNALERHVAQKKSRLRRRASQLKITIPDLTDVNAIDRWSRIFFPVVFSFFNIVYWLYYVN
T6 sequence (P18508 39-466): as the sequence (P18508 39-466) above
T4 sequence (P62813 28-455): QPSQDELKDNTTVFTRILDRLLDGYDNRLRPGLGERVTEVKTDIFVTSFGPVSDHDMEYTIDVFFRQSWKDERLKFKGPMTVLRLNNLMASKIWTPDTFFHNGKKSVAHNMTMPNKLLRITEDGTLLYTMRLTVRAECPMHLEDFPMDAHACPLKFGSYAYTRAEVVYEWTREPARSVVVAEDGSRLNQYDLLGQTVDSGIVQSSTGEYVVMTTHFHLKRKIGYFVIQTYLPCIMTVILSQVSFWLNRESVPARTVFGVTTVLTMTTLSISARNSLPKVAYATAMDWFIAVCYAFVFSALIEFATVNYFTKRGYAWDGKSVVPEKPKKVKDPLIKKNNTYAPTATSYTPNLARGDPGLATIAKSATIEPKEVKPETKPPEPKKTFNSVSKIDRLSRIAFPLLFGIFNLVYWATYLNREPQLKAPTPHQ
T4 sequence (P63138 25-474 partner limits assumed): as the sequence (P63138 25-474 partner limits assumed) above
T4 sequence (P18508 39-466): as the sequence (P18508 39-466) above
α2GABAAR, sequence (P26048 29-451): as the sequence (P23576 29-451) above, with S88L, P174A counted along it
α2GABAAR, sequence (P22723 39-474): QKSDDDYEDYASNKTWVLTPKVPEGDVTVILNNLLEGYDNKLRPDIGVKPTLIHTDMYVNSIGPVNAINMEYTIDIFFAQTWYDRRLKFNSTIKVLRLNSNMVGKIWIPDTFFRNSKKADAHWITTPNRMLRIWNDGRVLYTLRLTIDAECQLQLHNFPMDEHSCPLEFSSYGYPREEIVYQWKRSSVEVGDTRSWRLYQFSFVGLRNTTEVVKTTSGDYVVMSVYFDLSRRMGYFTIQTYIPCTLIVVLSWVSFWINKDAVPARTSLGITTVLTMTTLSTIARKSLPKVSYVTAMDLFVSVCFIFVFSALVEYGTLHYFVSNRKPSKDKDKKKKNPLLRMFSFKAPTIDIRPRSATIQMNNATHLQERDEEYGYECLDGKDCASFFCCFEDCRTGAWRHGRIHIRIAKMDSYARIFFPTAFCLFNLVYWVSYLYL

Compound | Potentiation of currents (% increase upon application) (α3β3γ2 GABAAR) | Direct activation of GABAAR currents [1] | Preference α2- versus α1GABAARs at low concentrations [2] | Efficacy of potentiation of α2- versus α1GABAARs at saturating concentrations [2] | Relative potentiation of subtypes at sub-saturating concentrations [2] | Binding affinity for α2 versus α1 receptor complexes [4] | Analgesic effect (healthy volunteers) | ED50 antihyperalgesia [6] [mg/kg] | other results
CN1C(=O)CC(=O)N(c2ccccc2)c2cc(Cl)ccc21 [CBZ, clobazam] | about 300% | did not directly activate GABAAR currents | about similar effects on α2- and α1GABAARs | potentiated both GABAAR subtypes with similar efficacy | α1GABAAR mediated currents were potentiated similarly to α2-, α3- and α5-GABAARs mediated currents | higher binding affinity for α2 versus α1 receptor complexes | weak analgesic effects |  | Potentiation of the other three α1-, α2-, and α5-GABAARs subtypes [3]: about 150%; Half-life in human [5]: 23 to 24 h
O=C1CN=C(c2ccccc2Cl)c2cc([N+](=O)[O-])ccc2N1 [clonazepam] |  |  |  |  |  | no distinction of affinity between α2 and α1 receptor complexes | weak analgesic effects |  | 
CN1C(=O)CN=C(c2ccccc2)c2cc(Cl)ccc21 [DZP, diazepam] | 237% | did not directly activate GABAAR currents | favored α1GABAARs | potentiated both GABAAR subtypes with similar efficacy | α1GABAAR mediated currents were potentiated more strongly than α2-, α3- and α5-GABAARs mediated currents |  |  | 3.4 ± 1.3 | ED50 sedation [7]: 0.59 ± 0.08 mg/kg; α2GABAAR occupancy at which significant analgesia (>50% maximum possible effect) is achieved (α2GABAAR): about 70%
O=C1CC(=O)N(c2ccccc2)c2cc(Cl)ccc2N1 [NDMC, 8-Chloro-1-phenyl-1H-1,5-benzodiazepine-2,4(3H,5H)-dione] | 245% | did not directly activate GABAAR currents | preferred α2GABAARs across the entire concentration range tested | clearly favored α2-over α1GABAARs | highest for α2- followed by α3-, and lowest for α5- and α1-GABAARs mediated currents | a difference which is shared |  | 3.1 ± 0.9 | half-life ([8]; C57BL/6, mouse, plasma, range over single oral doses of 3, 10 and 30 mg kg^−1): 4.6 to 5.6 h; Average maximum plasma concentration ([8]; single oral dose 3 mg kg^−1): 1.2 µg/mL; Average maximum plasma concentration ([8]; single oral dose 10 mg kg^−1): 1.9 µg/mL; Average maximum plasma concentration ([8]; single oral dose 30 mg kg^−1): 3.3 µg/mL; Time to average maximum plasma concentrations [8, 11]: about 2.5 hrs; Time to maximal blood levels [8, 11]: 2 to 3 h; Effect on locomotor activity (sedation) (mice, motor activity; 129X1/SvJ mice, all tested doses): did not cause any measurable reduction in locomotor activity; Effect on motor activity (sedation) (mice, motor activity; C57BL/6J mice, 3, 10, 30 mg/kg, recorded for 6 h): did not impair motor activity at any dose; Potentiation of currents (% increase upon application) (α1β2γ2 GABAAR): 143%; Efficacy at α2β3γ2GABAARs compared with DZP (α2β3γ2 GABAAR): even stronger efficacy at α2β3γ2GABAARs than the full agonist DZP; Potentiation of currents (% increase upon application) (α2β3γ2 GABAAR; α2GABAARs, GABA at EC10): 253%; Potentiation of currents (% increase upon application) (α5β2γ2 GABAAR): 148%; α2/α1GABAAR selectivity ratio ([2]; compared among DZP, CBZ and NDMC): most favorable α2/α1GABAAR selectivity ratio; Reversal of mechanical hypersensitivity (paw withdrawal threshold) ([9]; C57BL/6J mice, injured paw, NDMC 3, 10, 30 mg/kg, compared to vehicle): dose-dependently reversed this hypersensitivity; Antihyperalgesic effect, mechanical hyperalgesia [9, 12]: completely lost its antihyperalgesic effects; Reversal of thermal hypersensitivity (paw withdrawal latency) ([10]; C57BL/6J mice, injured paw, NDMC 3, 10, 30 mg/kg): dose-dependently reversed this hypersensitivity; Antihyperalgesic effect, heat hyperalgesia [10, 12]: completely lost its antihyperalgesic effects

Reference: US10806739B2, “Use of n-desmethylclobazam in the treatment of chronic pain disorders and related methods” (LES HOPITAUX UNIV[…] GENEVE, priority 2015, dated 2020)
